{
  "source": "patent US20040146509A1",
  "about": "“Methods for improvement of lung function using TGF-beta inhibitors” (priority 2002, published 2004)",
  "system": "bleomycin-induced lung fibrosis",
  "assay": "Lung hydroxyproline content following bleomycin-induced lung fibrosis (14 days)",
  "format": "in vivo, rat",
  "conditions": "rats, bleomycin intratracheal day 0; day 1-14: Compound B 30 mg/kg oral three times a day, Triamcinolone 8 mg/kg i.p. every other day; versus bleo+saline; FIG. 8",
  "description": "Male Sprague-Dawley rats weighing 225 to 250 were purchased from Charles River Laboratories, Inc. Rats were housed in groups of two in the animal facility provided with filtered air and constant temperature and humidity. All animal maintenance was in accordance with Scios' guidelines for animal welfare. The rats were allowed to acclimate to the new environment for one week before all treatment. A 12:12 hour light-dark cycle was maintained, and the animals had free access to ad libitum food and water.\nDay 0: To induce pulmonary fibrosis, rats were intubated with 0.5 ml of saline or 0.5 ml of 1.0 unit/ml of bleomycin by intratracheal injection under anesthesia. The anesthetic solution used is a mixture of 0.4 ml of ketamine (100 mg/ml) and 0.25 ml of xylazine (20 mg/ml) at a dose of 1.3 ml/kg.\nGroup 2 & 3: Rats were weighed and orally dosed with 5 ml/kg of saline three times a day […]\nTo estimate the total amount of collagen in fibrotic lungs, the hydroxyproline content of the whole lung was measured in each group according to the method described by Woessner Biochim Biophys Acta. […]\nBriefly, lungs were harvested and homogenized in 15 ml of 1×PBS with a Polytron homogenizer. […] The hydroxyproline content was the measured using the method of Woessner.\nThe data were analyzed using a one-way analysis of variance (ANOVA) with a Bonferroni's multiple comparisons post tests. […]",
  "data": [
    {"smiles": "C[C@]12C=CC(=O)C=C1CC[C@H]1[C@@H]3C[C@@H](O)[C@](O)(C(=O)CO)[C@@]3(C)C[C@H](O)[C@@]12F", "note": "[Triamcinolone]", "values": [
      {"measurement": "lung hydroxyproline content", "value": "significantly reducing lung hydroxyproline content"}
    ]}
  ]
}
